{
  "source": "patent US20210040134A1",
  "about": "“COMBINATIONS OF MACROLIDE COMPOUNDS AND IMMUNE CHECKPOINT INHIBITORS” (ISR IMMUNE SYSTEM REGULATION HOLDING AB (PUBL), priority 2018, published 2021)",
  "key": {"[1]": {"target": "T1, human TLR2 (Homo sapiens, UniProt O60603)", "T1 construct": "host or cells: recombinant HEK-293-TLR cell lines", "T1 sequence (O60603 21-784)": "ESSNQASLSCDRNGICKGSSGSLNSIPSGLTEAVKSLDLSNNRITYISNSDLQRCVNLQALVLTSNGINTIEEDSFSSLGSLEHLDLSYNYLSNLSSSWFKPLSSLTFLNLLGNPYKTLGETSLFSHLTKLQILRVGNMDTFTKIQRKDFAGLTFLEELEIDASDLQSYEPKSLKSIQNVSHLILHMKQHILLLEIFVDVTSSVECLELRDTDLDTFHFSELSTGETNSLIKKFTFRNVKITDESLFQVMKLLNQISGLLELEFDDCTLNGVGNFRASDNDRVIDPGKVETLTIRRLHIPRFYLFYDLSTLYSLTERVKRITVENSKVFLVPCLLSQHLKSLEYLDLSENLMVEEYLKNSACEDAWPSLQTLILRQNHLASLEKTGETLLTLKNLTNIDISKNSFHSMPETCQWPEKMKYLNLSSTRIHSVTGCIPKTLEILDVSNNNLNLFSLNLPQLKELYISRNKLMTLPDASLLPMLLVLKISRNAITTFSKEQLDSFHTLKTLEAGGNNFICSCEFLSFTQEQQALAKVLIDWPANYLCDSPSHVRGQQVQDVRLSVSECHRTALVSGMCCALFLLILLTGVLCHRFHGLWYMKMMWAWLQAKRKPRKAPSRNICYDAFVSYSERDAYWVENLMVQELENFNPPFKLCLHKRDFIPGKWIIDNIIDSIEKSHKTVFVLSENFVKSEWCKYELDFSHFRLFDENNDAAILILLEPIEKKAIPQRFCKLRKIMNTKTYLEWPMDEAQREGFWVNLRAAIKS", "assay": "TLR2 reporter assay (HEK-293-TLR, SEAP)", "type": "cell-based", "details": "concentrations up to 20 uM", "description": "Samples and controls were tested in duplicate on recombinant HEK-293-TLR cell lines using a cell reporter assay at Invivogen using their standard assay conditions. These cell lines functionally over-express human TLR2 protein as well as a reporter gene which is a secreted alkaline phosphatase (SEAP). The production of this reporter gene is driven by an NFkB inducible promoter. The TLR reporter cell lines activation results are given as optical density values (OD).\n20 μl of each test article were used to stimulate the hTLR2 reporter cell lines in a 200 μl of final reaction volume. Samples were tested in duplicate, with at least two concentrations tested—20 uM and 10 uM.\nCompounds were tested using a TLR2 reporter assay (see general methods) that measured for stimulation of the TLR2 receptor. Stimulatory effect was measured as an increase in optical density (OD) due to release of secreted alkaline phosphatase (SEAP) and is shown in table 4: […]"}, "[2]": {"assay": "Human microsome stability assay", "type": "in vitro ADME", "details": "pH 7.4, human liver microsomes, read-out: T½", "description": "Rate of metabolism in microsomes was tested as follows:\nHuman liver microsomes were diluted with buffer C (0.1 M Potassium Phosphate buffer, 1.0 mM EDTA, pH 7.4) to a concentration of […]. Microsomal stability studies were carried out by adding 30 μL of 1.5 μM compound spiking solution to wells (1.5 μL of 500 μM spiking solution (10 μL of 10 mM DMSO stock solution into 190 μL ACN to eventually generate final test concentration of 1 uM) and 18.75 μL of 20 mg/mL liver microsomes into 479.75 μL of Buffer C). All samples were pre-incubated for approximately 15 minutes at 37° C. Following this, the reaction was initiated by adding 15 μL of the NADPH solution (6 mM) with gentle mixing. Aliquots (40 μL) were removed at 0, 5, 15, 30 and 45 minutes and quenched with ACN containing internal standard (135 μL). Protein was removed by centrifugation (4000 rpm, 15 min) and the sample plate analysed for compound concentration by LC-MS/MS. Half-lives were then calculated by standard methods, comparing the concentration of analyte with the amount originally present.\nThe metabolic stability of the compounds of the invention was assessed in a standard human microsome stability assay (see general methods)."}, "[3]": {"test_system": "E. coli, S. salivarius, L. casei, B. longum, M. luteus", "assay": "MIC assay, summary over all bacterial strains tested", "type": "cell-based", "details": "any of the strains tested", "description": "The bioactivity of macrolide compounds against 4 strains of common gut bacteria (Escherichia coli, Streptococcus salivarius subsp. salivarius, Lactobacillus casei and Bifidobacterium longum subsp. infantis) and common mammalian skin isolate Micrococcus luteus, was assessed using the Minimum Inhibitory Concentration (MIC) assay. Bacterial strains were purchased from DSMZ (Brunswick, Germany) except M. luteus which was obtained from NCIMB, and stored in 20% glycerol at −80° C. Stock solutions (100% DMSO) of positive controls (azithromycin and erythromycin), and of test compounds 1 and 2 were diluted in broth to working stock concentrations of 256 μg/ml (final assay testing concentration range 128 μg/ml to 0.00391 μg/ml). Stock solutions of all other compounds were diluted in broth to working stock concentrations of 128 μg/ml (final assay testing concentration range 64 μg/ml to 0.00195 μg/ml). Bacterial strains were cultivated in appropriate broth in an anaerobic chamber at 37° C., except for M. luteus which was incubated aerobically at 37° C. 18 h cultures were diluted in broth to an OD595 of 0.1 and then further diluted 1:10. In 96-well plates, in duplicate, 200 μl working stock of test compound was transferred to well 1 and serially diluted (1:2) in broth. 100 μl bacterial suspension was aliquoted into each well and mixed thoroughly. Appropriate sterility controls were included and plates were incubated in an anaerobic chamber, or aerobically (M. luteus) at 37° C. for 18 h. The MIC was determined to be the concentration of test compound in the first well with no visible growth."}, "[4]": {"assay": "Caco-2 bidirectional permeability assay", "type": "in vitro ADME", "details": "human, Caco-2; B to A permeability divided by A to B permeability", "description": "(§1) 10 μM Test article was added to the apical (A) surface of Caco-2 cell monolayers (in HBSS buffer with 0.3% DMSO and 5 μM LY at 37 degrees C.) and compound permeation into the basolateral (B) compartment measured following 90 minutes incubation. This was also performed in the reverse direction (basolateral to apical) to investigate active transport. LC-MS/MS is used to quantify levels of both the test and standard control compounds. Efflux ratio was calculated by dividing the B to A permeability by the A to B permeability.\n(§2) Drug permeability:Papp=(VA/(Area×time))×([drug]accepter/(([drug]initial,donor)×Dilution Factor)\n(§3) The permeability of the compounds of the invention was assessed in a standard caco-2 bidirectional permeability assay (see general methods)."}, "[5]": {"test_system": "Caco-2 cell monolayers", "assay": "Caco-2 bidirectional permeability assay", "type": "in vitro ADME", "details": "Caco-2, 10 μM test article, 90 minutes", "description": "as §1, §2, §3"}},
  "data": [
    {"compound": "CC[C@H]1OC(=O)[C@H](C)[C@@H](O[C@H]2CC(N(C)C)[C@H](O)C(C)O2)[C@H](C)[C@@H](O)[C@](C)(O)C[C@@H](C)N(C)C[C@H](C)[C@@H](O)[C@]1(C)O", "note": "(some centres unmarked) [Compound 17]", "values": [
      {"measurement": "TLR2 stimulation (in words)", "setting": "[1]", "result": "stimulated TLR2 at concentrations down to 10 uM"}
    ]},
    {"compound": "CC[C@H]1OC(=O)[C@H](C)[C@@H](O[C@H]2C[C@@](C)(OC)[C@@H](O)[C@H](C)O2)[C@H](C)[C@@H](O[C@@H]2O[C@H](C)C[C@H](N(C)C)[C@H]2O)[C@](C)(O)C[C@@H](C)C(=O)[C@H](C)[C@@H](O)[C@]1(C)O", "note": "[Erythromycin, reference compound]", "values": [
      {"measurement": "half-life at 1 uM", "setting": "[2]", "result": 0.517, "unit": "h"},
      {"measurement": "antibacterial activity against the bacterial strains tested (in words)", "setting": "[3]", "result": "potent activity"},
      {"measurement": "TLR2 stimulation (in words)", "setting": "[1]", "result": "little or no stimulation"}
    ]},
    {"compound": "CC[C@H]1OC(=O)[C@H](C)[C@@H](O[C@H]2CC(N(C)C)[C@H](O)C(C)O2)[C@H](C)[C@@H](O)[C@](C)(O)C[C@@H](C)CN(C)[C@H](C)[C@@H](O)[C@H]1C", "note": "(some centres unmarked) [Compound 4]", "values": [
      {"measurement": "antibacterial activity against the bacterial strains tested (in words)", "setting": "[3]", "result": "no antibacterial activity"}
    ]},
    {"compound": "CC[C@H]1OC(=O)[C@H](C)[C@@H](O[C@H]2C[C@@](C)(OC)[C@@H](O)[C@H](C)O2)[C@H](C)[C@@H](O[C@@H]2O[C@H](C)C[C@H](N(C)C)[C@H]2O)[C@](C)(O)C[C@@H](C)CN(C)[C@H](C)[C@@H](O)[C@]1(C)O", "note": "[Azithromycin, reference compound]", "values": [
      {"measurement": "efflux ratio at 90 minutes, 10 μM", "setting": "[4]", "result": "> 78"},
      {"measurement": "Papp", "setting": "[5]", "result": "<0.14 × 10^6/cm · s^−1"},
      {"measurement": "half-life at 1 uM", "setting": "[2]", "result": 4.08, "unit": "h"},
      {"measurement": "antibacterial activity against the bacterial strains tested (in words)", "setting": "[3]", "result": "potent activity"},
      {"measurement": "TLR2 stimulation (in words)", "setting": "[1]", "result": "little or no stimulation"}
    ]},
    {"compound": "CC[C@H]1OC(=O)[C@H](C)[C@@H](O[C@H]2CC(NC)[C@H](O)C(C)O2)[C@H](C)[C@@H](O)[C@](C)(O)C[C@@H](C)C(=O)[C@H](C)[C@@H](O)[C@H]1C", "note": "(some centres unmarked) [Compound 6]", "values": [
      {"measurement": "half-life at 1 uM", "setting": "[2]", "result": 1.82, "unit": "h"},
      {"measurement": "antibacterial activity against the bacterial strains tested (in words)", "setting": "[3]", "result": "no antibacterial activity"}
    ]},
    {"compound": "CC(O)[C@H]1OC(=O)[C@H](C)[C@@H](O[C@H]2C[C@@H](N(C)C)[C@H](O)[C@@H](C)O2)[C@H](C)[C@@H](O)[C@](C)(O)C[C@@H](C)C(=O)[C@H](C)[C@@H](O)[C@H]1C", "note": "(some centres unmarked) [Compound 9, 14-hydroxy angolosamine erythronolide B]", "values": [
      {"measurement": "half-life at 1 uM", "setting": "[2]", "result": 1.67, "unit": "h"},
      {"measurement": "antibacterial activity against the bacterial strains tested (in words)", "setting": "[3]", "result": "no antibacterial activity"}
    ]},
    {"compound": "CC1O[C@@H](O[C@H]2[C@H](C)[C@@H](O)[C@](C)(O)C[C@@H](C)C(=O)[C@H](C)[C@@H](O)[C@@H](C)[C@@H](C)OC(=O)[C@@H]2C)CC(N(C)C)[C@@H]1O", "note": "(some centres unmarked) [Compound 8]", "values": [
      {"measurement": "antibacterial activity against the bacterial strains tested (in words)", "setting": "[3]", "result": "no antibacterial activity"}
    ]},
    {"compound": "CC1O[C@@H](O[C@H]2[C@H](C)[C@@H](O)[C@](C)(O)C[C@@H](C)C(=O)[C@H](C)[C@@H](O)[C@@H](C)[C@@H](C3CCC3)OC(=O)[C@@H]2C)CC(N(C)C)[C@@H]1O", "note": "(some centres unmarked) [Compound 5]", "values": [
      {"measurement": "antibacterial activity against the bacterial strains tested (in words)", "setting": "[3]", "result": "no antibacterial activity"}
    ]},
    {"compound": "CC[C@H]1OC(=O)[C@H](C)[C@@H](O[C@H]2CC(N(C)C)[C@H](O)C(C)O2)[C@H](C)[C@@H](O)[C@](C)(O)C[C@@H](C)C(O)[C@H](C)[C@@H](O)[C@H]1C", "note": "(some centres unmarked) [Compound 7]", "values": [
      {"measurement": "half-life at 1 uM", "setting": "[2]", "result": 0.933, "unit": "h"},
      {"measurement": "antibacterial activity against the bacterial strains tested (in words)", "setting": "[3]", "result": "no antibacterial activity"}
    ]},
    {"compound": "CC[C@H]1OC(=O)[C@H](C)[C@@H](O[C@H]2CC(N(C)C)[C@H](O)C(C)O2)[C@H](C)[C@@H](O)[C@](C)(O)C[C@@H](C)C(=O)[C@H](C)[C@@H](O)[C@H]1C", "note": "(some centres unmarked) [Compound 3]", "values": [
      {"measurement": "antibacterial activity against the bacterial strains tested (in words)", "setting": "[3]", "result": "no antibacterial activity"},
      {"measurement": "TLR2 stimulation (in words)", "setting": "[1]", "result": "little or no stimulation"}
    ]}
  ]
}
